This is an account of results in patent US8859587B2, “(2E)-3-phenyl-N-[2,2,2-Trifluoro-1-[[8-quinolineamino)thiomethyl]amino]ethyl]-2-acrylamide and pharmaceutical uses thereof” (Chinese PLA General Hospital, priority 2010, dated 2014).

Read-outs that look alike come from different tables or passages of the source. Marks after values point to notes of the source that are not given here.

Assay [1] deals with cardiac muscle cells induced by Tunicamycin (TM). Put plainly: Survival rate of TM-induced cardiac muscle cells detected by MTT method. It is filed as cell-based, Wistar rats. The following applies: for Cell survival rate (%): MTT. The method, then:
(§1) The separation and culture of cardiomyocyte refer to the method of differential adhesion separation (Kreider, A. Messing, H. Doan, S. U. Kim, R. P. Lisak and D. E. Pleasure, Enrichment of Schwann cell cultures from neonatal rat sciatic nerve by differential adhesion, Brain Res 2 (1981), pp. 433-444.), Wistar neonate rats newly born within 24 h were used to obtain primary cardiac muscle cells.
The separated cardiac muscle cells were inoculated in an amount of 10^4 cells per well to a 96-well plate, and the volume of each well was 100 μl (marginal wells were filled with sterile PBS). […] After continuous inoculation, each well was added with 20 μl of MTT solution (5 mg/ml, formulated with PBS (pH=7.4), i.e., 0.5% MTT), and the cultivation was continued for 4 h. After the end of cultivation, culture medium in wells was carefully sucked out. Each well was added with 150 μl of DMSO, shaken at a low speed in a shaking table for 10 min, so that the crystal was sufficiently dissolved. The optical density (OD) value of each well was measured at wavelength of 490 nm by enzyme-linked immunoassay instrument, and each well was repeatedly measured for 3 times and the results were recorded. The cell survival rate at each time point was calculated according to: […], and a cell growth curve was drawn by using time as abscissa and optical density as ordinate.

The subject of assay [2] is primary cardiac muscle cells induced by TM. Description: Cardiomyocyte apoptosis induced by TM, AnnexinV-FITC flow cytometer. It is filed as cell-based, Wistar rats. The following applies: for Cardiomyocyte apoptosis rate detected by flow cytometer (%): 24 h. The method, then: (§2) The primary cardiac muscle cells obtained by the method according to the culture method of primary cardiac muscle cells of Example 1 were added with tunicamycin (TM) on the 4th day to perform interference test. The cells were randomly divided into 5 groups: solvent control group (DMSO), TM interference group (5 μg/ml), Compound of Formula I+TM interference group (10 μM+5 μg/ml), Compound of Formula I interference group ([…]+5 μg/ml), Compound of Formula I interference group ([…]+5 μg/ml).
it is 24 h after drug interference, the cells were treated by the method of AnnexinV-FITC apoptosis kit, and the apoptosis was detected within 1 h by using a flow cytometer (BD ACScalibur, US Becton-Dickinson Company). For each sample, 14000 cells were collected and analyzed, the test was repeated for 3 times, and the average value was used as a result.
(In flow cytometry, cells or beads pass a laser one at a time.)

Assay [3] shares this test system. Description: Cardiomyocyte apoptosis induced by TM, TUNEL detection. The class given is cell-based, Wistar rats. The following applies: for TUNEL detection (%) cardiomyocyte apoptosis rate: 24 h, n = 6. The procedure: as §2
It was 24 h after drug interference, the apoptotic cells were detected by terminal deoxynucleotidyl transferase-mediated biotinylated UTP nick end labeling (TUNEL) method, and the cells were treated according to the specification of kit. The cells treated with 0.1 mg/ml DNase I and growing on a glass slide were used as positive control. 5 or more visual fields were randomly selected under light microscope, the apoptotic cells (brown yellow granules seen in nucleus) among the cells were counted. Apoptosis rat=(number of positively stained nuclei/number of all nuclei)×100%.

Assay [4] deals with primary cardiac muscle cells. It is filed as cell-based, Wistar rats. The following applies: 48 h, MTT, normal cells. The method, then: Animal: newly born Wistar rats, rat age: within 24 h, male and female
as §1
The separated primary culture of cardiac muscle cells as obtained by the above method were inoculated in an amount of 10^4 cells per well to a 96-well plate, and the volume of each well was 100 μl (marginal wells were filled with sterile PBS). After being cultivated in 5% CO2 and 37° C. incubator for 4 d, they were added with the compound of Formula 1 at different concentrations (0.3 μM, 1 μM, 3 μM, 10 μM, 30 μM, 100 μM), 3 double-wells were set for each concentration, at the same time, zero setting wells (culture medium, MTT, DMSO), and control wells (culture medium, DMSO) were also set. After continuous inoculation for 48 h, each well was added with 20 μl of MTT solution (5 mg/ml, formulated with PBS (pH=7.4), i.e., 0.5% MTT), and the cultivation was continued for 4 h. After the end of cultivation, culture medium in wells was carefully sucked out. Each well was added with 150 μl of DMSO, shaken at a low speed in a shaking table for 10 min, so that the crystal was sufficiently dissolved. The optical density (OD) value of each well was measured at wavelength of 550 nm by enzyme-linked immunoassay instrument, and each well was repeatedly measured for 5 times and the results were recorded.

For assay [5], the system named is apoptosis stimulation irrelevant to endocytoplasmic reticulum stress. Put plainly: Protection against apoptosis stimulation irrelevant to endocytoplasmic reticulum stress. The class given is cell-based.

On to `O=C(/C=C/c1ccccc1)NC(NC(=S)Nc1cccc2cccnc12)C(Cl)(Cl)Cl` (centres unmarked) [Compound of Formula I, (2E)-3-phenyl-N-[2,2,2-trichloro-1-[[(8-quinolylamino)thiomethyl]amino]ethyl]-2-acrylamide], for which the “Cell survival rate (%)” value in assay [1] (5 μM pretreatment 30 min + TM 5 μg/ml) is on record as 82.6106 ± 8.1018 %; in assay [1] (10 μM pretreatment 30 min + TM 5 μg/ml), 83.8371 ± 8.2608 %; in assay [1] (20 μM pretreatment 30 min + TM 5 μg/ml), 84.6255 ± 5.5519 %; in assay [1] (40 μM + TM 5 μg/ml) it was 85.4139 ± 5.6916 %. Besides, the “cell survival rate in comparison with the TM group” value in assay [1] (pretreatment in various concentrations, p<0.05) is recorded as “significant increase of cell survival rate”. In addition, the “Cardiomyocyte apoptosis rate detected by flow cytometer (%)” value is 22.98 ± 1.35^ab % in assay [2] (10 μM + TM 5 μg/ml), 20.13 ± 0.87^ab % in assay [2] (20 μM + TM 5 μg/ml) and 18.64 ± 0.83^ab % in assay [2] (40 μM + TM 5 μg/ml). Besides, the “apoptosis rates in comparison with the TM group (flow cytometer)” value in assay [2] (10, 20, 40 μM, P<0.05) was “significantly decreased apoptosis rates”. For the same compound, the “TUNEL detection (%) cardiomyocyte apoptosis rate” value in assay [3] (10 μM + TM 5 μg/mL) was 25.75 ± 0.97 ^b %; in assay [3] (20 μM + TM 5 μg/mL), 24.94 ± 0.82 ^b %; in assay [3] (40 μM + TM 5 μg/mL) it was 21.15 ± 0.85 ^b c %. Moreover, the “apoptosis rate in comparison with the TM interference group (TUNEL)” value in assay [3] (10, 20, 40 μM, P<0.05) was “significant decrease in apoptosis rate”. For the same compound, the “Cardiomyocyte survival rate (%)” value in assay [4] (0.3 μM) is listed as 98.8562 ± 6.7316^a %; in assay [4] (1 μM), 91.6667 ± 7.6257^a %; in assay [4] (3 μM) it was 94.5261 ± 3.7997^a %; in assay [4] (10 μM), 102.7778 ± 3.0645^a %; in assay [4] (30 μM), 105.8007 ± 3.2639^a %; in assay [4] (100 μM), 104.2484 ± 7.3625^a %. In addition, the “protection against apoptosis stimulation irrelevant to endocytoplasmic reticulum stress” value in assay [5] is given as “does not protect apoptosis stimulation irrelevant to endocytoplasmic reticulum stress”.
